Assay results taken from PubChem BioAssay (NCI).
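Dose response: 5 concentrations. Exposure: 48 h. Format: 96-well plates. Endpoint: linear interpolation; highest concentration if not reached. At the GI50, growth is halved. TGI: total growth inhibition.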

Assays:
Assay in all cases: DTP human tumour cell line panel, 48 h; in the data active = GI50 below about 0.43 µM; inactive = the rest
786-0 renal = tested on: 786-0 renal
A498 renal = tested on: A498 renal
A549 NSCLC = tested on: A549 NSCLC
ACHN renal = tested on: ACHN renal
BT-549 breast = tested on: BT-549 breast
CAKI-1 renal = tested on: CAKI-1 renal
CCRF-CEM leukemia = tested on: CCRF-CEM leukemia
COLO 205 colon = tested on: COLO 205 colon
DU-145 prostate = tested on: DU-145 prostate
EKVX NSCLC = tested on: EKVX NSCLC
HCC-2998 colon = tested on: HCC-2998 colon
HCT-116 colon = tested on: HCT-116 colon
HCT-15 colon = tested on: HCT-15 colon
HL-60(TB) leukemia = tested on: HL-60(TB) leukemia
HOP-62 NSCLC = tested on: HOP-62 NSCLC
HOP-92 NSCLC = tested on: HOP-92 NSCLC
HS 578T breast = tested on: HS 578T breast
HT29 colon = tested on: HT29 colon
IGROV1 ovarian = tested on: IGROV1 ovarian
K-562 leukemia = tested on: K-562 leukemia
KM12 colon = tested on: KM12 colon
LOX IMVI melanoma = tested on: LOX IMVI melanoma
M14 melanoma = tested on: M14 melanoma
MALME-3M melanoma = tested on: MALME-3M melanoma
MCF7 breast = tested on: MCF7 breast
MDA-MB-231 breast = tested on: MDA-MB-231 breast
MDA-MB-435 = tested on: MDA-MB-435
MDA-MB-468 breast = tested on: MDA-MB-468 breast
MOLT-4 leukemia = tested on: MOLT-4 leukemia
NCI-H226 lung = tested on: NCI-H226 lung
NCI-H23 lung = tested on: NCI-H23 lung
NCI-H460 lung = tested on: NCI-H460 lung
NCI-H522 lung = tested on: NCI-H522 lung
NCI/ADR-RES ovarian = tested on: NCI/ADR-RES ovarian
OVCAR-3 ovarian = tested on: OVCAR-3 ovarian
OVCAR-4 ovarian = tested on: OVCAR-4 ovarian
OVCAR-5 ovarian = tested on: OVCAR-5 ovarian
OVCAR-8 ovarian = tested on: OVCAR-8 ovarian
PC-3 prostate = tested on: PC-3 prostate
RPMI-8226 leukemia = tested on: RPMI-8226 leukemia
RXF 393 renal = tested on: RXF 393 renal
SF-268 CNS = tested on: SF-268 CNS
SF-295 CNS = tested on: SF-295 CNS
SF-539 CNS = tested on: SF-539 CNS
SK-MEL-2 melanoma = tested on: SK-MEL-2 melanoma
SK-MEL-28 melanoma = tested on: SK-MEL-28 melanoma
SK-MEL-5 melanoma = tested on: SK-MEL-5 melanoma
SK-OV-3 ovarian = tested on: SK-OV-3 ovarian
SN12C renal = tested on: SN12C renal
SNB-19 CNS = tested on: SNB-19 CNS
SNB-75 CNS = tested on: SNB-75 CNS
SR leukemia = tested on: SR leukemia
SW-620 colon = tested on: SW-620 colon
T-47D breast = tested on: T-47D breast
TK-10 renal = tested on: TK-10 renal
U251 CNS = tested on: U251 CNS
UACC-257 melanoma = tested on: UACC-257 melanoma
UACC-62 melanoma = tested on: UACC-62 melanoma
UO-31 renal = tested on: UO-31 renal

C#C[C@]1(O)CC[C@H]2[C@@H]3CC=C4c5sc(Nc6cc(C)cc(C)n6)nc5CC[C@]4(C)[C@H]3CC[C@@]21C
inactive: GI50 (786-0 renal) > 100 µM | GI50 (A498 renal) > 100 µM | GI50 (A549 NSCLC) > 100 µM | GI50 (ACHN renal) > 100 µM | GI50 (BT-549 breast) > 100 µM | GI50 (CAKI-1 renal) > 100 µM | GI50 (CCRF-CEM leukemia) > 100 µM | GI50 (COLO 205 colon) > 100 µM | GI50 (DU-145 prostate) > 100 µM | GI50 (EKVX NSCLC) > 100 µM | GI50 (HCC-2998 colon) > 100 µM | GI50 (HCT-116 colon) > 100 µM | GI50 (HCT-15 colon) > 100 µM | GI50 (HL-60(TB) leukemia) > 100 µM | GI50 (HOP-62 NSCLC) > 100 µM | GI50 (HOP-92 NSCLC) > 100 µM | GI50 (HS 578T breast) > 100 µM | GI50 (HT29 colon) > 100 µM | GI50 (IGROV1 ovarian) > 100 µM | GI50 (K-562 leukemia) > 100 µM | GI50 (KM12 colon) > 100 µM | GI50 (LOX IMVI melanoma) > 100 µM | GI50 (M14 melanoma) > 100 µM | GI50 (MALME-3M melanoma) > 100 µM | GI50 (MCF7 breast) > 100 µM | GI50 (MDA-MB-231 breast) > 100 µM | GI50 (MDA-MB-435) > 100 µM | GI50 (MDA-MB-468 breast) > 100 µM | GI50 (MOLT-4 leukemia) > 100 µM | GI50 (NCI-H226 lung) > 100 µM | GI50 (NCI-H23 lung) > 100 µM | GI50 (NCI-H460 lung) > 100 µM | GI50 (NCI-H522 lung) > 100 µM | GI50 (NCI/ADR-RES ovarian) > 100 µM | GI50 (OVCAR-3 ovarian) > 100 µM | GI50 (OVCAR-4 ovarian) > 100 µM | GI50 (OVCAR-5 ovarian) > 100 µM | GI50 (OVCAR-8 ovarian) > 100 µM | GI50 (PC-3 prostate) > 100 µM | GI50 (RPMI-8226 leukemia) > 100 µM | GI50 (RXF 393 renal) > 100 µM | GI50 (SF-268 CNS) > 100 µM | GI50 (SF-295 CNS) > 100 µM | GI50 (SF-539 CNS) > 100 µM | GI50 (SK-MEL-2 melanoma) > 100 µM | GI50 (SK-MEL-28 melanoma) > 100 µM | GI50 (SK-MEL-5 melanoma) > 100 µM | GI50 (SK-OV-3 ovarian) > 100 µM | GI50 (SN12C renal) > 100 µM | GI50 (SNB-19 CNS) > 100 µM | GI50 (SNB-75 CNS) > 100 µM | GI50 (SR leukemia) > 100 µM | GI50 (SW-620 colon) > 100 µM | GI50 (T-47D breast) > 100 µM | GI50 (TK-10 renal) > 100 µM | GI50 (U251 CNS) > 100 µM | GI50 (UACC-257 melanoma) > 100 µM | GI50 (UACC-62 melanoma) > 100 µM | GI50 (UO-31 renal) > 100 µM
> 100 µM: TGI (786-0 renal) | TGI (A498 renal) | TGI (A549 NSCLC) | TGI (ACHN renal) | TGI (BT-549 breast) | TGI (CAKI-1 renal) | TGI (CCRF-CEM leukemia) | TGI (COLO 205 colon) | TGI (DU-145 prostate) | TGI (EKVX NSCLC) | TGI (HCC-2998 colon) | TGI (HCT-116 colon) | TGI (HCT-15 colon) | TGI (HL-60(TB) leukemia) | TGI (HOP-62 NSCLC) | TGI (HOP-92 NSCLC) | TGI (HS 578T breast) | TGI (HT29 colon) | TGI (IGROV1 ovarian) | TGI (K-562 leukemia) | TGI (KM12 colon) | TGI (LOX IMVI melanoma) | TGI (M14 melanoma) | TGI (MALME-3M melanoma) | TGI (MCF7 breast) | TGI (MDA-MB-231 breast) | TGI (MDA-MB-435) | TGI (MDA-MB-468 breast) | TGI (MOLT-4 leukemia) | TGI (NCI-H226 lung) | TGI (NCI-H23 lung) | TGI (NCI-H460 lung) | TGI (NCI-H522 lung) | TGI (NCI/ADR-RES ovarian) | TGI (OVCAR-3 ovarian) | TGI (OVCAR-4 ovarian) | TGI (OVCAR-5 ovarian) | TGI (OVCAR-8 ovarian) | TGI (PC-3 prostate) | TGI (RPMI-8226 leukemia) | TGI (RXF 393 renal) | TGI (SF-268 CNS) | TGI (SF-295 CNS) | TGI (SF-539 CNS) | TGI (SK-MEL-2 melanoma) | TGI (SK-MEL-28 melanoma) | TGI (SK-MEL-5 melanoma) | TGI (SK-OV-3 ovarian) | TGI (SN12C renal) | TGI (SNB-19 CNS) | TGI (SNB-75 CNS) | TGI (SR leukemia) | TGI (SW-620 colon) | TGI (T-47D breast) | TGI (TK-10 renal) | TGI (U251 CNS) | TGI (UACC-257 melanoma) | TGI (UACC-62 melanoma) | TGI (UO-31 renal)
